Data on six compounds can be found in ChEMBL document CHEMBL1137316, “Discovery of S-(2-guanidylethyl)-isothiourea (VUF 8430) as a potent nonimidazole histamine H4 receptor agonist” (J Med Chem, 2006).

For test [1], the target named is Histamine H4 receptor (Homo sapiens, UniProt Q9H3N8). The experiment in a line: Displacement of [3H]histamine from human histamine H4 receptor.
Test [2] addresses Histamine H2 receptor (Homo sapiens) (UniProt P25021). The experiment in a line: Agonist activity at human histamine H2 receptor. The test is classed as functional.
The target of test [3] is T1, Histamine H3 receptor (Homo sapiens, UniProt Q9Y5N1). The experiment in a line: Agonist activity at human histamine H3 receptor in SK-N-MC cells assessed as inhibition of forskolin-induced cAMP-mediated CRE-beta galactosidase activity. The test is classed as functional, cell-based.
T1 sequence (Q9Y5N1 whole entry): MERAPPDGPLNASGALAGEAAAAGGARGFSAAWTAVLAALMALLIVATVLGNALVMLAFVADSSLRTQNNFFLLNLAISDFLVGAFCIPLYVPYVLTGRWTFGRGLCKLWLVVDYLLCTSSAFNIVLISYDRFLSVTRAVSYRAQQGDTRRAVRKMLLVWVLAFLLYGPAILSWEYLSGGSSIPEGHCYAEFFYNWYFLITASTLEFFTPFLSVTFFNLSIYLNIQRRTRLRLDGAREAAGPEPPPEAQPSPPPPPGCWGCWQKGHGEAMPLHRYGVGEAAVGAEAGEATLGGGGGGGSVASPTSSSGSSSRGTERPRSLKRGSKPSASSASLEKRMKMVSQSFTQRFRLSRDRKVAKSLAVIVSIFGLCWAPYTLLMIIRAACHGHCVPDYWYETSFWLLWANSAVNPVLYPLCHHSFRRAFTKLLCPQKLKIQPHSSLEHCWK
The target in test [4] is T1, Histamine H3 receptor. Put plainly: Displacement of [3H]Nalpha-methylhistamine from human histamine H3 receptor expressed in SK-N-MC cells. The test is classed as cell-based.
The target of test [5] is Histamine H1 receptor (Homo sapiens) (UniProt P35367). Put plainly: Agonist activity at human histamine H1 receptor at 100 uM. The test is classed as functional.
Chain of Histamine H1 receptor (Homo sapiens) (P35367 whole entry): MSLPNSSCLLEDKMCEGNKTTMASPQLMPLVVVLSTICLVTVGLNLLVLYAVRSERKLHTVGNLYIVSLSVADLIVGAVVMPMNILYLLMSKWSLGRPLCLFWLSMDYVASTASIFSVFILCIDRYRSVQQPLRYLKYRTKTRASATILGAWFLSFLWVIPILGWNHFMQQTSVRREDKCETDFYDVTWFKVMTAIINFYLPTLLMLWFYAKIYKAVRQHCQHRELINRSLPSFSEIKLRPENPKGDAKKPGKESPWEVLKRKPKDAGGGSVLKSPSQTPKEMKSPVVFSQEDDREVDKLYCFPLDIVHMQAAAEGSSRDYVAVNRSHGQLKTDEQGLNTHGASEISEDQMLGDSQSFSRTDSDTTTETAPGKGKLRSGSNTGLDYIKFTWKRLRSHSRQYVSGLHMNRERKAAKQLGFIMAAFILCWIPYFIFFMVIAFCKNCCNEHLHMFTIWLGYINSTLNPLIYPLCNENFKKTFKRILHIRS
Test [6] concerns the target Histamine H2 receptor (Cavia porcellus) (UniProt P47747). Put plainly: Activity at human histamine H2 receptor in guinea pig right atrium. The test is classed as functional, tissue-based. The settings on record: Cardiac atrium.

Molecules are shown by their SMILES. Active and inactive are the calls of the source. The rule behind the calls is not given here.

Chain of Histamine H4 receptor (Q9H3N8 whole entry): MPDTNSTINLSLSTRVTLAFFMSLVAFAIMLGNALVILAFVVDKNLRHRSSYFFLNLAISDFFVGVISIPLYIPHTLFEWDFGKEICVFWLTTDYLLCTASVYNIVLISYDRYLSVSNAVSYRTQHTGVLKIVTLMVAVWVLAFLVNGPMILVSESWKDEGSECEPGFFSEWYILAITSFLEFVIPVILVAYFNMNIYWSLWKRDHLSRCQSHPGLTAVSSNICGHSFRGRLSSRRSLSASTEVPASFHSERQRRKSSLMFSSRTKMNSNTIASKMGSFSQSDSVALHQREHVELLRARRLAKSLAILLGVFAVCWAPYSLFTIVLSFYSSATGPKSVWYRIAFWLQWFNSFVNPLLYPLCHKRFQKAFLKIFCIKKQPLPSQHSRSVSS
Chain of Histamine H2 receptor (Cavia porcellus) (P47747 whole entry): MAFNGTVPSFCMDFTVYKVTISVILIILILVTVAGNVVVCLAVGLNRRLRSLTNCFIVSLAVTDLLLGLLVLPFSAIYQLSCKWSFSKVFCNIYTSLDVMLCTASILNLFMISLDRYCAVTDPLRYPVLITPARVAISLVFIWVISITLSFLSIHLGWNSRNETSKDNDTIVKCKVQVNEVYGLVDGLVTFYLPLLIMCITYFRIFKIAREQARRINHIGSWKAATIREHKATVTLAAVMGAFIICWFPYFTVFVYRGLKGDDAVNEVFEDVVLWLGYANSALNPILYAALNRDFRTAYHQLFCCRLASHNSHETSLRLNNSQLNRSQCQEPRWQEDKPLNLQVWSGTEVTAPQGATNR
Chain of Histamine H2 receptor (Homo sapiens) (P25021 whole entry): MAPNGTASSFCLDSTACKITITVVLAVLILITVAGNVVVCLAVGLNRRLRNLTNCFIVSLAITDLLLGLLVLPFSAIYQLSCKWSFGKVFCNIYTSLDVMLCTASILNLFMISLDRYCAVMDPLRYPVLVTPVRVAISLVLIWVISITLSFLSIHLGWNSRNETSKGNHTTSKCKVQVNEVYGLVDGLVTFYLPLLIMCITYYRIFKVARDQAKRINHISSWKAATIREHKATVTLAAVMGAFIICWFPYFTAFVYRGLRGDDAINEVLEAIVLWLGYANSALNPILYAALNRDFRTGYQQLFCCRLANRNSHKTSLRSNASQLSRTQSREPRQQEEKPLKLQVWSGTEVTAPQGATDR

On to `N=C(N)NCCCCCCSC(=N)N`, for which the affinity in test [1], expressed as Ki, was 3980 nM.

In test [2], `N=C(N)NCCSC(=N)N` displayed an Activity of 50%. Further, the Intrinsic activity in test [3] came out at 1. The same compound showed a Ki in test [4] of 1000 nM. Besides, the result in test [5] was inactive. In test [6], this compound returned an Intrinsic activity of 0.4 and a pD2 of 3.8.

The compound `N=C(N)NCCNC(=N)N` showed a Ki in test [1] of 398 nM.

The compound `N=C(N)NCCCSC(=N)N` showed a Ki in test [1] of 7940 nM.

On to `N=C(N)SCCSC(=N)N`, for which the Ki in test [1] is 251 nM.

As to `N=C(N)NCCCCSC(=N)N`, in test [1], the Ki was 3160 nM.

By Ki is commonly meant the dissociation constant of the complex between target and ligand, obtained from inhibition or displacement. A lower Ki goes with a stronger hold on the target.
